Test results reported in patent publication US7419657B2, “Treatment of atherosclerotic disorders” (priority 2001, dated 2008).
Several values for one entry are separate records, joined by “and”; a condition that tells them apart may be missing. Equal values may be shown once. Where a name gives a salt, the structure may show the parent alone. Read-outs that look alike come from different tables or passages of the source. Marks after values point to notes of the source that are not given here.

Columns and labels:
anti-Chlamydia abzymes [1] = assay: Anti-abzyme therapy trial in ischaemic heart disease: serum abzyme activity; type: in vivo, human
anti-Chlamydia abzymes [2] = assay: Abzyme activity in angina patients reporting aspirin intake (Example 10); type: in vivo, human; details: for abzyme activity, + aspirin: individuals
anti-Chlamydia abzymes [3] = type: biochemical, human; set-up: key to In-vitro Inhibition: + = inhibition; − = no inhibition
anti-Chlamydia abzymes [4] = assay: Serum abzyme activity in patients taking aspirin (Example 6); type: in vivo, human
anti-Chlamydia IgG [5] = assay: Anti-abzyme therapy trial: anti-Chlamydia IgG; type: in vivo, human
anti-Chlamydia IgG [6] = details: best of previously undertaken trials with azithromycin; cited from earlier work
[7] = Anti-abzyme therapy trial: modified Rose-Blackburn Questionnaire; type: in vivo, human; set-up: Score by modified Rose-Blackburn Questionnaire, 60 days after start of the treatment / Rose Blackthorn Score Day 60: scale not given here
From the text: The progression of the clinical condition of the patients was monitored by the use of the modified Bruce Protocol for treadmill exercise/stress ECG testing and on the Rose-Blackburn Questionnaire (Cardiovascular Survey Methods. WHO, Geneva, 1968).

anti-Chlamydia abzymes [8] = assay: Serum abzyme activity in stable angina patients treated with azithromycin with or without aspirin (Example 8); type: in vivo, human; details: azithromycin 500 mg once per day
Chlamydia = type: biochemical, Chlamydia pneumoniae or Chlamydia Psittaci
lesion IgG = assay: LDL peroxidation by lesion IgG with tested antioxidants; type: biochemical, human
human plasma = assay: In vitro kaolin clotting of plasma with atheroma IgG abzymes; details: pH 6.2
[9] = 10 μM of each Me2+-binding agent
[10] = 10 μM of each Me2+-binding agent, control 24.3
[11] = patient F, Silent Myocardial Ischaemia
[12] = Therapy Group A individual IHD patients, azithromycin 500 mg daily
[13] = Therapy Group A mean, before treatment 47.5
[14] = individual IHD patients negative for anti-Chlamydia IgG
[15] = group mean, before treatment 45.9
[16] = individual stable angina patients
[17] = LDL 480 μg of protein, +0.1 M antioxidant, control 0.49 ± 0.023

## CC(=O)Oc1ccccc1C(=O)O [Aspirin, acetylsalicylic acid]
anti-Chlamydia abzymes [1]; Therapy Group D individual IHD patients, aspirin 250 mg daily, before 103, 253
  Anti-Chlamydia abzyme activity, 60 days after the start of treatment: 63 μM MDA/ml and 103 μM MDA/ml
anti-Chlamydia abzymes [1]; Therapy Group D mean, before treatment 178
  Anti-Chlamydia abzyme activity, 60 days after the start of treatment: 83.2 μM MDA/ml
anti-Chlamydia abzymes [2]; stable angina class I
  abzyme activity, + aspirin: 5 and 45 and 0 (3×) and 10
anti-Chlamydia abzymes [2]; stable angina class II
  abzyme activity, + aspirin: 5 (4×) and 10 (2×) and 0 (4×) and 25 and 22.5 and 3.3 and 16.7 and 30
anti-Chlamydia abzymes [2]; stable angina class III
  abzyme activity, + aspirin: 0 (3×) and 45 and 5 and 35 and 15 and 30 and 105 and 20
anti-Chlamydia abzymes [2]; unstable angina (IV)
  abzyme activity, + aspirin: 130 and 70 and 0 and 37 and 90 and 100 and 180
anti-Chlamydia abzymes [2]; stable angina class I, 1/6
  individuals positive for abzymes, + aspirin: 17%
anti-Chlamydia abzymes [2]; stable angina class I, n = 6, without aspirin 30.0
  abzyme activity, + aspirin, group mean: 10.0
anti-Chlamydia abzymes [2]; stable angina class II, 4/15
  individuals positive for abzymes, + aspirin: 27%
anti-Chlamydia abzymes [2]; stable angina class II, n = 15, without aspirin 32.2
  abzyme activity, + aspirin, group mean: 9.2
anti-Chlamydia abzymes [2]; stable angina class III, 6/10
  individuals positive for abzymes, + aspirin: 60%
anti-Chlamydia abzymes [2]; stable angina class III, n = 10, without aspirin 56.0
  abzyme activity, + aspirin, group mean: 25.5
anti-Chlamydia abzymes [2]; unstable angina (IV), 6/7
  individuals positive for abzymes, + aspirin: 86%
anti-Chlamydia abzymes [2]; unstable angina (IV), n = 7, without aspirin 119
  abzyme activity, + aspirin, group mean: 86.7
anti-Chlamydia abzymes [3]
  In-vitro Inhibition: +
anti-Chlamydia abzymes [3]; [9]
  Result (inhibition of anti-Chlamydia abzymes): Positive
anti-Chlamydia abzymes [3]; [10]
  Lipid oxidising activity of anti-Chlamydia abzymes: 6.2 μM MDA/ml
anti-Chlamydia abzymes [4]; individual patients with CHD, before aspirin 45, 100, 45
  Level of activity of anti-Chlamydia abzymes, 7 days after starting to take 250 mg of aspirin daily: undetectably low level and 20 μM MDA/ml and 0 μM MDA/ml
anti-Chlamydia abzymes [4]; one CHD patient, 250 mg aspirin daily, after a week
  inhibition of the abzyme activity: 5 fold
anti-Chlamydia abzymes [4]; [11]
  Level of activity of anti-Chlamydia abzymes, 7 days after re-starting to take 250 mg aspirin daily: 20 μM MDA/ml
  Level of activity of anti-Chlamydia abzymes, after stopping taking aspirin for 7 days: 65 μM MDA/ml
anti-Chlamydia abzymes [4]; patient F, Silent Myocardial Ischaemia, regular intake
  Level of activity of anti-Chlamydia abzymes, aspirin intake 250 mg daily: 10 μM MDA/ml

## CC[C@H]1OC(=O)[C@H](C)[C@@H](O[C@H]2C[C@@](C)(OC)[C@@H](O)[C@H](C)O2)[C@H](C)[C@@H](O[C@@H]2O[C@H](C)C[C@H](N(C)C)[C@H]2O)[C@](C)(O)C[C@@H](C)CN(C)[C@H](C)[C@@H](O)[C@]1(C)O [Azithromycin]
anti-Chlamydia IgG [5]; summary, group value, before treatment 43.6, 48.5, 52.0 (A, C, B), immuno-fluorescent assay
  Anti-Chlamydia IgG, 60 days after treatment: 0 (titers)^−1
anti-Chlamydia IgG [5]; therapy trial
  presence of anti-Chlamydia IgG after the intensive regimen: totally eliminated
anti-Chlamydia abzymes [1]; [12]
  Anti-Chlamydia abzyme activity, 15 days after the start of treatment: 6.7 μM MDA/ml (3×) and 0 μM MDA/ml (3×) and 60* μM MDA/ml and 8.3 μM MDA/ml and 33 μM MDA/ml and 75* μM MDA/ml and 52* μM MDA/ml
  Anti-Chlamydia abzyme activity, 30 days after the start of treatment: 78** μM MDA/ml and 0 μM MDA/ml (3×) and 37* μM MDA/ml and 28** μM MDA/ml and 3.3 μM MDA/ml (2×) and 10 μM MDA/ml (2×) and 78* μM MDA/ml
  Anti-Chlamydia abzyme activity, 45 days after the start of treatment: 17 μM MDA/ml and 0 μM MDA/ml (5×) and 20* μM MDA/ml and 43* μM MDA/ml and 3.3 μM MDA/ml (2×) and 5.0 μM MDA/ml
  Anti-Chlamydia abzyme activity, 60 days after the start of treatment: 3.3 μM MDA/ml and 6.7 μM MDA/ml (2×) and 0 μM MDA/ml (7×) and 0.5 μM MDA/ml
anti-Chlamydia abzymes [1]; [13]
  Anti-Chlamydia abzyme activity, 15 days after the start of treatment: 22.5 μM MDA/ml
  Anti-Chlamydia abzyme activity, 30 days after the start of treatment: 22.5 μM MDA/ml
  Anti-Chlamydia abzyme activity, 45 days after the start of treatment: 7.4 μM MDA/ml
  Anti-Chlamydia abzyme activity, 60 days after the start of treatment: 1.6 μM MDA/ml
anti-Chlamydia abzymes [1]; Therapy Group A, 3 out of 11
  patients with no changes in the abzyme activity after 15 days: 27%
anti-Chlamydia abzymes [1]; [14]
  Abzyme activity Day 60: 6.7 (2×) and 3.3 and 0
anti-Chlamydia abzymes [1]; summary, group mean, PCG 55.3 ± 6.18, Norm 6.36 ± 1.14
  Anti-Chlamydia abzymes activity, 60 days after treatment: 1.6 ± 0.89 μM/MDA/ml
anti-Chlamydia IgG [6]
  treated patients with a reduction of titers of anti-Chlamydia antibodies: 43%
[7]; group mean
  Score by modified Rose-Blackburn Questionnaire, 60 days after start of the treatment: 14.4 ± 1.14
[7]; [14]
  Rose Blackthorn Score Day 60: 18 and 19 and 10 and 13
[7]; individual patients
  Score by modified Rose-Blackburn Questionnaire, 60 days after start of the treatment: 13 and 16 and 18 and 15 (2×) and 8 and 11 and 17 (2×) and 19 and 10
[7]; summary, group mean, PCG 21.5 ± 1.19
  Clinical Status modified Rose G., Blackburn H Questionnaire, 60 days after treatment: 14.4 ± 1.14
anti-Chlamydia abzymes [3]; in DMSO, 1 μM, control 61
  Lipid oxidising activity of anti-Chlamydia abzymes: 7 μM MDA/ml
anti-Chlamydia abzymes [3]; in DMSO, 5 μM, control 61
  Lipid oxidising activity of anti-Chlamydia abzymes: 0 μM MDA/ml
anti-Chlamydia abzymes [3]; suspension in water, 1 μM, control 61
  Lipid oxidising activity of anti-Chlamydia abzymes: 19 μM MDA/ml
anti-Chlamydia abzymes [3]; suspension in water, 2 μM, control 61
  Lipid oxidising activity of anti-Chlamydia abzymes: 0 μM MDA/ml
anti-Chlamydia abzymes [3]; suspension in water, 10 μM, control 61
  Lipid oxidising activity of anti-Chlamydia abzymes: 0 μM MDA/ml
anti-Chlamydia abzymes [3]; suspension in water, 20 μM, control 61
  Lipid oxidising activity of anti-Chlamydia abzymes: 0 μM MDA/ml
anti-Chlamydia abzymes [8]; [15]
  Anti-Chlamydia abzyme activity, 15 days after the start of the treatment: 19.6 μM MDA/ml
  Anti-Chlamydia abzyme activity, 30 days after the start of the treatment: 17.7 μM MDA/ml
anti-Chlamydia abzymes [8]; [16]
  Anti-Chlamydia abzyme activity, 15 days after the start of the treatment: 60 μM MDA/ml and 0 μM MDA/ml (3×) and 8.3 μM MDA/ml and 6.7 μM MDA/ml (3×) and 33 μM MDA/ml and 75 μM MDA/ml
  Anti-Chlamydia abzyme activity, 30 days after the start of the treatment: 37 μM MDA/ml and 0 μM MDA/ml (3×) and 28 μM MDA/ml and 3.3 μM MDA/ml (2×) and 10 μM MDA/ml and 78 μM MDA/ml
human, in vivo
  adverse reactions: No adverse reactions
Patient 5, before treatment 10 tablets daily
  tablets of nitroglycerine daily after 15 days of treatment: 5 tablets of nitroglycerine

## C[S+](C)[O-] [DMSO]
Chlamydia
  development of lipid oxidation reaction: completely abrogated
Lesion IgG; LDL 480 μg of protein, +1% antioxidant, control 0.49 ± 0.023
  Level of MDA production by 0.82 μg of lesion IgG: 0 µM

## O=C(O)CN(CCN(CC(=O)O)CC(=O)O)CCN(CC(=O)O)CC(=O)O [DTPA]
anti-Chlamydia abzymes [3]
  In-vitro Inhibition: −
anti-Chlamydia abzymes [3]; [9]
  Result (inhibition of anti-Chlamydia abzymes): Negative
anti-Chlamydia abzymes [3]; [10]
  Lipid oxidising activity of anti-Chlamydia abzymes: 45.2 μM MDA/ml

## O=[N+]([O-])OCC(CO[N+](=O)[O-])O[N+](=O)[O-] [Glyceryl Trinitrate]
anti-Chlamydia abzymes [3]; drug 4.4 μM, control 21.7
  Anti-Abzyme activity: 0 μM MDA/ml
anti-Chlamydia abzymes [3]; drug 22 μM, control 21.7
  Anti-Abzyme activity: 0 μM MDA/ml
anti-Chlamydia abzymes [3]; drug 44 μM, control 21.7
  Anti-Abzyme activity: 0 μM MDA/ml
anti-Chlamydia abzymes [3]; drug 220 μM, control 21.7
  Anti-Abzyme activity: 0 μM MDA/ml

## O=[N+]([O-])O[C@H]1CO[C@H]2[C@@H]1OC[C@H]2O[N+](=O)[O-] [Isosorbide Dinitrate]
anti-Chlamydia abzymes [3]; drug 42 μM, control 21.7
  Anti-Abzyme activity: 0 μM MDA/ml
anti-Chlamydia abzymes [3]; drug 211 μM, control 21.7
  Anti-Abzyme activity: 0 μM MDA/ml

## CCC[C@@H]1C[C@@H](C(=O)N[C@@H]([C@H]2O[C@H](SC)[C@H](O)[C@@H](O)[C@H]2O)[C@@H](C)O)N(C)C1 [Lincomycin Hydrochloride]
anti-Chlamydia abzymes [3]; drug 6.5 μM, control 21.7
  Anti-Abzyme activity: 28.5 μM MDA/ml
anti-Chlamydia abzymes [3]; drug 13 μM, control 21.7
  Anti-Abzyme activity: 30.3 μM MDA/ml

## [N-]=[N+]=[N-].[Na+] [NaN1, sodium azide]
Human plasma
  abzyme effect on the plasma clotting after pre-incubation of the abzymes with inhibitor: reduction
anti-Chlamydia abzymes [3]
  In-vitro Inhibition: +
  Lipid oxidising activity of anti-Chlamydia abzymes: 0 μM MDA/ml
  Result (inhibition of anti-Chlamydia abzymes): Positive

## CC(C)(S)[C@@H](N)C(=O)O [Penicillamine]
anti-Chlamydia abzymes [3]
  In-vitro Inhibition: +
anti-Chlamydia abzymes [3]; [9]
  Result (inhibition of anti-Chlamydia abzymes): Positive
anti-Chlamydia abzymes [3]; [10]
  Lipid oxidising activity of anti-Chlamydia abzymes: 0 μM MDA/ml

## O=C(O)c1ccccn1 [Picolinic acid]
anti-Chlamydia abzymes [3]
  In-vitro Inhibition: +
anti-Chlamydia abzymes [3]; [9]
  Result (inhibition of anti-Chlamydia abzymes): Positive
anti-Chlamydia abzymes [3]; [10]
  Lipid oxidising activity of anti-Chlamydia abzymes: 0 μM MDA/ml

## CC(C)NCC(O)COc1cccc2ccccc12 (stereo not shown) [Propranolol Hydrochloride]
anti-Chlamydia abzymes [3]; Hydrochloride
  Anti-Abzyme activity: 21.3 μM MDA/ml and 18.3 μM MDA/ml

## CCCCCCCCCCCCOS(=O)(=O)[O-].[Na+] [SDS]
Chlamydia
  lipid oxidising reaction in the test system: no lipid oxidising reaction

## N.N.O=S(=O)(O)O [ammonium sulphate]
Chlamydia
  lipid oxidising reaction in the test system: no lipid oxidising reaction

## O=C1O[C@H]([C@@H](O)CO)C(O)=C1O [ascorbic acid]
Lesion IgG
  Level of MDA production by 0.82 μg of lesion IgG: 0 µM

## O=C(O)c1ccccc1 [benzole acid]
Lesion IgG; [17]
  Level of MDA production by 0.82 μg of lesion IgG: 0 µM

## C=O [formalin]
Chlamydia
  lipid oxidising reaction in the test system: no lipid oxidising reaction

## O=C[O-].[Na+] [sodium formate]
Lesion IgG; [17]
  Level of MDA production by 0.82 μg of lesion IgG: 0 µM

## Cc1c(C)c2c(c(C)c1O)CC[C@@](C)(CCC[C@H](C)CCC[C@H](C)CCCC(C)C)O2 [α-Tocopherol]
anti-Chlamydia abzymes [3]; in DMSO, 1 μM, control 61
  Lipid oxidising activity of anti-Chlamydia abzymes: 15 μM MDA/ml
anti-Chlamydia abzymes [3]; in DMSO, 10 μM, control 61
  Lipid oxidising activity of anti-Chlamydia abzymes: 0 μM MDA/ml

## Heparin
anti-Chlamydia abzymes [3]; drug 0.1 mg/ml, control 21.7
  Anti-Abzyme activity: 19.7 μM MDA/ml

## Igepal CA-630
Chlamydia
  development of lipid oxidation reaction: completely abrogated
  oxidation of the lipids in the bacteria by the extracted abzymes: abolished

## Nadroparin Calcium
anti-Chlamydia abzymes [3]; drug 95 UI, control 21.7
  Anti-Abzyme activity: 20.5 μM MDA/ml
anti-Chlamydia abzymes [3]; drug 465 UI, control 21.7
  Anti-Abzyme activity: 12.8 μM MDA/ml

## Triton X-100
Chlamydia
  development of lipid oxidation reaction: completely abrogated
  oxidation of the lipids in the bacteria by the extracted abzymes: abolished
